This is an account of results in patent EP4745134A1 (Jiangsu Yahong Meditech Co., Ltd., priority 2023, dated 2025).

Structures are written as SMILES. Read-outs that look alike come from different tables or passages of the source.

Experiment [1] addresses PRMT5-MTA (Homo sapiens, UniProt O14744). The experiment in a line: Enzymatic inhibitory activity against PRMT5-MTA (AlphaScreen). Format: biochemical. In outline: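 PRMT5/[…] (1 nM) was preincubated for 30 min at room temperature with 1 µM […] and 2.5 µM SAM, then exposed to compound (10-point, 3-fold from 1000 nM) for 15 min at 23 °C. Histone H4 substrate (5 nM) was added and reacted for 45 min at 23 °C. Symmetric dimethyl-R3 H4 was detected by AlphaScreen and IC50 calculated.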
In general terms: In Alpha technology, singlet oxygen from a donor bead excites a nearby acceptor bead.

The test system of experiment [2] is HCT116-WT cells. Description: Inhibitory activity against cell proliferation (CellTiter Glo, 6 days), HCT116-WT. Type of experiment: cell-based. The following applies: 144 h, HCT116-WT cells, 6 days, CellTiter Glo; read-out: HCT116-WT IC50. In outline: (§1)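 250 cells/well, McCoy's 5A + 10% FBS, o/n 37°C 5% CO2; cpd 8-pt 4-fold from 10000 nM, 6 d; CTG lum on day 7; IC50 vs DMSO.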
(In general: Cellular ATP, detected with luciferase, serves as a proxy for viable cell number.)

For experiment [3], the system named is HCT116 MTAP KO cells. The experiment in a line: Inhibitory activity against cell proliferation (CellTiter Glo, 6 days), HCT116 MTAP KO. The following applies: for IC50: Homo sapiens, HCT-116, 144 h, HCT116 MTAP KO cells, 6 days, CellTiter Glo, read-out: HCT116 MTAP KO IC50; for Selectivity HCT 116-WT/ HCT116 MTAP KO: ratio of IC50 HCT116-WT / HCT116 MTAP KO. Format: cell-based. In outline: as §1

PRMT5-MTA, sequence (O14744 whole entry): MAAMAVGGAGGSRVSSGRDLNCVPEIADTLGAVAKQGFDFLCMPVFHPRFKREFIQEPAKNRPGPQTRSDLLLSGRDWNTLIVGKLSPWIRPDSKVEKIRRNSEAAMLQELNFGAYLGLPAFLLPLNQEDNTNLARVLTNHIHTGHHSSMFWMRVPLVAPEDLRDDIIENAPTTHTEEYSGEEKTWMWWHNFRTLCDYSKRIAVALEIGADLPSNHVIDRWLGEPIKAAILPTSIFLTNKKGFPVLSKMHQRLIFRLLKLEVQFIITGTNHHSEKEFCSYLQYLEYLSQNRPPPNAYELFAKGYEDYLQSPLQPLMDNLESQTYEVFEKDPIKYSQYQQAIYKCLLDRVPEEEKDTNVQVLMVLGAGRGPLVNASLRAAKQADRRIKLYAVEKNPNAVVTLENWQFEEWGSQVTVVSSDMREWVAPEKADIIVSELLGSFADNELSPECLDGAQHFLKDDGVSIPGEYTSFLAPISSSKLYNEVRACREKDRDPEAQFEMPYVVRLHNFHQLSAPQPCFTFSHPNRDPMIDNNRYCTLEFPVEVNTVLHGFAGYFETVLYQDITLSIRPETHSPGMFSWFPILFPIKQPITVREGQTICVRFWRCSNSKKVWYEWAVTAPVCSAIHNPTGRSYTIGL
PRMT5-MTA, sequence (Q9BQA1 whole entry partner): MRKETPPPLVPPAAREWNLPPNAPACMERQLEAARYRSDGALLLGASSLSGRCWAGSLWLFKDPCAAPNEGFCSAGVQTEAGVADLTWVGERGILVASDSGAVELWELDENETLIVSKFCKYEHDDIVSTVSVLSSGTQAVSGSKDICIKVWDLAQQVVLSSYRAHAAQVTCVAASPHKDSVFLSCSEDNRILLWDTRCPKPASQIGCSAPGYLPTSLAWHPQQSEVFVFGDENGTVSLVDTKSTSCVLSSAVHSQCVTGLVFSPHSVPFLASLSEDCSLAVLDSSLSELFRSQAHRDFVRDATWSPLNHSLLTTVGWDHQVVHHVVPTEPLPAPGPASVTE

As to `Cc1cc2nc(N)c3cnn(C)c3c2cc1C(=O)N1CC(C)CN1c1ncc(-c2scnc2C)cc1F` (stereo not shown) [Example 475, (4-amino-1,7-dimethyl-1H-pyrazolo[4,3-c]quinolin-8-yl)(2-(3-fluoro-5-(4-methylthiazol-5-yl)pyridin-2-yl)-4-methylpyrazolidin-1-yl)methanone], the IC50 was determined as 5.1 nM in experiment [1] (read-out: IC50), 2760 nM in experiment [2] and 63 nM in experiment [3]. Further, in experiment [3], the “Selectivity HCT 116-WT/ HCT116 MTAP KO” value was found to be 43.81.

Consider `Cc1cc2nc(N)c3cnn(C)c3c2cc1C(=O)N1CC(C)CN1c1cccc(Cl)n1` (stereo not shown) [Example 403, (4-amino-1,7-dimethyl-1H-pyrazolo[4,3-c]quinolin-8-yl)(2-(6-chloropyridin-2-yl)-4-methylpyrazolidin-1-yl)methanone], for which the half-maximal inhibitory concentration (IC50) in experiment [1] (read-out: IC50) amounted to 3.8 nM; in experiment [2], 277 nM; in experiment [3] it was 14 nM. Moreover, in experiment [3], the “Selectivity HCT 116-WT/ HCT116 MTAP KO” value stood at 19.79.

For the molecule `Cc1cc2cc(C(=O)N(Cc3ccc(C4(F)COC4)cn3)N(C)c3ncccn3)ccc2nc1N` [Example 286, 2-amino-N-((5-(3-fluorooxetan-3-yl)pyridin-2-yl)methyl)-N',3-dimethyl-N'-(pyrimidin-2-yl)quinoline-6-carbohydrazide], the IC50 in experiment [1] (read-out: IC50) stood at 2.7 nM; in experiment [2], 2420 nM; in experiment [3], 91 nM. For the same molecule, the “Selectivity HCT 116-WT/ HCT116 MTAP KO” value in experiment [3] is reported as 26.60.

For `Cn1ncc2c(N)nc3cc(Cl)c(C(=O)N4CC(C(F)(F)F)CN4c4ncccc4F)cc3c21` (stereo not shown) [Example 351, (4-amino-7-chloro-1-methyl-1H-pyrazolo [4,3-c]quinolin-8-yl)(2-(3-fluoropyridin-2-yl)-4-(trifluoromethyl)pyrazolidin-1-yl) methanone], the IC50 in experiment [1] (read-out: IC50) was 4.9 nM; in experiment [2], 1840 nM; in experiment [3], 85 nM. Besides, in experiment [3], the “Selectivity HCT 116-WT/ HCT116 MTAP KO” value is 21.59.

In the case of `Cc1cc2cc(C(=O)N(Cc3ccc(-c4scnc4C4CC4)cn3)N(c3ncccn3)C3CC3)ccc2nc1N` [Example 240, 2-amino-N'-cyclopropyl-N-((5-(4-cyclopropylthiazol-5-yl)pyridin-2-yl)methyl)-3-methyl-N'-(pyrimidin-2-yl)quinoline-6-carbohydrazide], the IC50 in experiment [1] (read-out: IC50) was found to be 3.9 nM; in experiment [2] it was 396 nM; in experiment [3] it was 36 nM. Further, in experiment [3], the “Selectivity HCT 116-WT/ HCT116 MTAP KO” value was determined as 11.00.

With `C=Cc1cccnc1N(C)N(Cc1ccc(C(F)(F)F)cn1)C(=O)c1ccc2nc(N)c(C)cc2c1` [Example 133, 2-amino-N',3-dimethyl-N-((5-(trifluoromethyl)pyridin-2-yl)methyl)-N'-(3-vinylpyridin-2-yl)quinoline-6-carbohydrazide], the values for the IC50 in experiment [1] (read-out: IC50), in experiment [2] and in experiment [3] were 3.6 nM, 3400 nM and 312 nM, respectively. For the same molecule, the “Selectivity HCT 116-WT/ HCT116 MTAP KO” value in experiment [3] is 10.89.

Take `Cc1cc2nc(N)c3cnn(C)c3c2cc1C(=O)N1C[C@@H](C)CN1c1ncccc1F` (single isomer, unassigned) [Example 464]: the 50% inhibitory concentration (IC50) was found to be 3.1 nM in experiment [1] (read-out: IC50), 1090 nM in experiment [2] and 17 nM in experiment [3]. The “Selectivity HCT 116-WT/ HCT116 MTAP KO” value in experiment [3] was found to be 64.06.

Turning to `COC1CN(C(=O)c2cc3c(cc2C)nc(N)c2cnn(C)c23)N(c2cc(F)ccc2F)C1` (stereo not shown) [Example 445, (4-amino-1,7-dimethyl-1H-pyrazolo[4,3-c]quinolin-8-yl)(2-(2,5-difluorophenyl)-4-methoxypyrazolidin-1-yl)methanone], the 50% inhibitory concentration (IC50) in experiment [1] (read-out: IC50) stood at 6.4 nM; in experiment [2] it was 548 nM; in experiment [3], 22 nM. For the same molecule, the “Selectivity HCT 116-WT/ HCT116 MTAP KO” value in experiment [3] worked out at 24.91.

For the molecule `Cc1cc2nc(N)c3cnn(C)c3c2cc1C(=O)N1CC(C(F)(F)F)CN1c1cccc(F)n1` (stereo not shown) [Example 352, (4-amino-1,7-dimethyl-1H-pyrazolo[4,3-c]quinolin-8-yl)(2-(6-fluoropyridin-2-yl)-4-(trifluoromethyl)pyrazolidin-1-yl)meth anone], the values for the IC50 in experiment [1] (read-out: IC50), in experiment [2] and in experiment [3] were 12.5 nM, 2260 nM and 77 nM, respectively. The “Selectivity HCT 116-WT/ HCT116 MTAP KO” value in experiment [3] amounted to 29.42.

As to `Cc1cc2cc(C(=O)N(Cc3ccc(C(F)(F)F)cn3)N(C)c3nccc(C#N)n3)ccc2nc1N` [Example 110, 2-amino-N'-(4-cyanopyrimidin-2-yl)-N',3-dimethyl-N-((5-(trifluoromethyl)pyridin-2-yl)methyl)quinoline-6-carbohydrazide], the IC50 came to 2.5 nM in experiment [1] (read-out: IC50), 2700 nM in experiment [2] and 172 nM in experiment [3]. Besides, the “Selectivity HCT 116-WT/ HCT116 MTAP KO” value in experiment [3] was found to be 15.71.

On to `[2H]C([2H])([2H])c1cc2cc(C(=O)N(Cc3ccc(-c4scnc4C)cn3)N(c3ncccn3)C3CC3)ccc2nc1N` [Example 316, 2-amino-N'-cyclopropyl-3-(methyl-D3)-N-((5-(4-methylthiazol-5-yl)pyridin-2-yl)methyl)-N'-(pyrimidin-2-yl)quinoline-6-c arbohydrazide], for which the values for the IC50 in experiment [1] (read-out: IC50), in experiment [2] and in experiment [3] were 6.8 nM, 215 nM and 11 nM, respectively. Also, the “Selectivity HCT 116-WT/ HCT116 MTAP KO” value in experiment [3] is recorded as 19.55.

Consider `Cc1cnc(N2CC(C)CN2C(=O)c2cc3c(cc2C)nc(N)c2cnn(C)c23)c(F)c1` (stereo not shown) [Compound 490, (4-amino-1,7-dimethyl-1H-pyrazolo[4,3-c]quinolin-8-yl)(2-(3-fluoro-5-methylpyridin-2-yl)-4-methylpyrazolidin-1-yl)metha none], for which the IC50 stood at 5.1 nM in experiment [1] (read-out: IC50), 1010 nM in experiment [2] and 26 nM in experiment [3]. The “Selectivity HCT 116-WT/ HCT116 MTAP KO” value in experiment [3] is on record as 38.96.

As for `Cc1cc2cc(C(=O)N(Cc3ccc(-c4ccn(C)c4)cn3)N(C)c3ncccn3)ccc2nc1N` [Example 148, 2-amino-N',3-dimethyl-N-((5-(1-methyl-1H-pyrrol-3-yl)pyridin-2-yl)methyl)-N'-(pyrimidin-2-yl)quinoline-6-carbohydrazide], the 50% inhibitory concentration (IC50) in experiment [1] (read-out: IC50) was found to be 1 nM; in experiment [2], 3090 nM; in experiment [3], 179 nM. For the same molecule, the “Selectivity HCT 116-WT/ HCT116 MTAP KO” value in experiment [3] was found to be 17.25.

Turning to `COc1cccc(N2CC(C)CN2C(=O)c2cc3c(cc2C)nc(N)c2cnn(C)c23)n1` (stereo not shown) [Example 406], the results for the half-maximal inhibitory concentration (IC50) in experiment [1], in experiment [2] and in experiment [3] were 4.3 nM, 906 nM and 23 nM, respectively. For the same molecule, in experiment [3], the “Selectivity HCT 116-WT/ HCT116 MTAP KO” value turned out to be 39.39.

Turning to `Cc1cc2nc(N)c3cnn(C)c3c2cc1C(=O)N1CC(C)CN1c1ncc(-c2cccnc2)cc1F` (stereo not shown) [Example 484, (4-amino-1,7-dimethyl-1H-pyrazolo[4,3-c]quinolin-8-yl)(2-(5-fluoro-[3,3'-bipyridine]-6-yl)-4-methylpyrazolidin-1-yl)metha none], the IC50 amounted to 6.4 nM in experiment [1] (read-out: IC50), 836 nM in experiment [2] and 15 nM in experiment [3]. Moreover, the “Selectivity HCT 116-WT/ HCT116 MTAP KO” value in experiment [3] was 55.73.

Take `Cc1cc2cc(C(=O)N(Cc3cc4cccc(F)c4cn3)N(C)c3ncccn3)ccc2nc1N` [Example 123, 2-amino-N-((8-fluoroisoquinolin-3-yl)methyl)-N',3-dimethyl-N'-(pyrimidin-2-yl)quinoline-6-carbohydrazide]: the results for the half-maximal inhibitory concentration (IC50) in experiment [1] (read-out: IC50), in experiment [2] and in experiment [3] were 2.9 nM, 1900 nM and 88 nM, respectively. Further, the “Selectivity HCT 116-WT/ HCT116 MTAP KO” value in experiment [3] turned out to be 21.61.

In the case of `Cc1cc2nc(N)c3c(C)nn(C)c3c2cc1C(=O)N1CC(C)CN1c1ncccc1F` (stereo not shown) [Example 509, (4-amino-1,3,7-trimethyl-1H-pyrazolo[4,3-c]quinolin-8-yl)(2-(3-fluoropyridin-2-yl)-4-methylpyrazolidin-1-yl) methanone], the IC50 in experiment [1] (read-out: IC50) is 4.3 nM; in experiment [2], above 10000 nM; in experiment [3], 443 nM.

On to `[2H]C([2H])([2H])c1cc2cc(C(=O)N(Cc3ccc(-c4sc(C)nc4C)cn3)N(c3ncccn3)C3CC3)ccc2nc1N` [Example 317, 2-amino-N'-cyclopropyl-N-((5-(2,4-dimethylthiazol-5-yl)pyridin-2-yl)methyl)-3-(methyl-D3)-N'-(pyrimidin-2-yl)quinoline-6-carbohydrazide], for which the IC50 amounted to 6.4 nM in experiment [1] (read-out: IC50), 241 nM in experiment [2] and 23 nM in experiment [3]. In addition, the “Selectivity HCT 116-WT/ HCT116 MTAP KO” value in experiment [3] is reported as 10.48.

Regarding `Cn1ncc2c(N)nc3cc(Cl)c(C(=O)N4CC5(CN4c4cccc(F)n4)CC(F)(F)C5)cc3c21` [Example 414, (4-amino-7-chloro-1-methyl-1H-pyrazolo [4,3-c]quinolin-8-yl)(2,2-difluoro-7-(6-fluoropyridin-2-yl)-6,7-diazaspiro[3.4]octan-6-yl)methanone], the IC50 in experiment [1] (read-out: IC50) worked out at 6.2 nM; in experiment [2] it was 305 nM; in experiment [3], 18 nM. Moreover, the “Selectivity HCT 116-WT/ HCT116 MTAP KO” value in experiment [3] came out at 16.94.

On to `[2H]C([2H])([2H])n1ncc2c(N)nc3cc(Cl)c(C(=O)N4CC(C)CN4c4ncccc4F)cc3c21` (stereo not shown) [Compound 508, (4-amino-7-chloro-1-(methyl-D3)-1H-pyrazolo[4,3-c]quinolin-8-yl)(2-(3-fluoropyridin-2-yl)-4-methylpyrazolidin-1-yl)meth anone], for which the half-inhibitory concentration (IC50) in experiment [1] (read-out: IC50) worked out at 16.6 nM; in experiment [2], 2710 nM; in experiment [3], 114 nM. Moreover, the “Selectivity HCT 116-WT/ HCT116 MTAP KO” value in experiment [3] amounted to 23.78.

As a reminder, the IC50 is the concentration needed to halve the response being measured.
